Measurements reported in patent US9827292B2, “Use of KGF in the treatment of menopausal disorders” (Università degli Studi di Roma “La Sapienza”, priority 2012, dated 2017).

What was measured:
KGFR [1] = test: KGFR protein expression by Western blot in MCF-7 cells; type: cell-based, human; settings: E2 20 ng/ml, 24 h, FIG. 3A
Protocol: (§1) The oestrogen receptor α-positive MCF-7 human breast adenocarcinoma cell line, acquired from American Type Culture Collection (no. HTB-22, ATCC-LGC Promochem, Teddington, UK), was cultured in Dulbecco's modified eagle's medium (DMEM; Invitrogen, Karlsruhe, Germany), supplemented with 10% foetal bovine serum (FBS; Invitrogen) and antibiotics. Primary cultures of human oestrogen-sensitive keratinocytes (KCs) were established from 1 cm^2 full-thickness mucosal biopsy of the vaginal vestibule. Following enzymatic dissociation, the keratinocytes were seeded onto culture plates coated with collagen IV (10 mg/ml), as previously reported [Panici et al, 2007], and were maintained in basal medium of the keratinocytes (KBM, Lonza) supplemented with aliquots of KGM (Lonza), with medium change twice a week. […]
(§2) MCF-7 cells untreated or treated with KGF or E2 were lysed in RIPA buffer. […] The bound antibody was detected by enhanced chemiluminescence detection reagents (Pierce Biotechnology, Inc, Rockford, Ill., USA), according to manufacturer's instructions. […] Densitometric analysis was performed using Quantity One Program (Bio-Rad Laboratories srl, Segrate, MI, Italy).

KGFR [2] = test: KGFR mRNA expression by real-time PCR in MCF-7 cells; type: cell-based, human; settings: E2 20 ng/ml, 24 h, normalised to 18s, FIG. 3B
Protocol: as §1
The cells were harvested and the total RNA was extracted with the use of TRIzol reagent (Invitrogen). cDNA was generated with oligo (dT) from 1 μg of RNA using the SuperScript III reverse transcriptase kit (Invitrogen). After reverse transcription, the abundance of KGFR in MCF-7 cells treated and untreated with E2 was quantified by Q-RT-PCR. […] Relative quantification was performed using mRNA 18s as an endogenous control. The data were expressed as a rise of mRNA of KGFR compared to the control.

[3] = Serum concentrations of E2 and KGF by ELISA in treated mice; type: in vivo, mouse; settings: daily treatment for 60 days, ovariectomised mice, FIG. 7A
Protocol: The mouse strain CD1 was used in this study (Charles Rivers). The mice were held in a standard housing for laboratory animals with controlled lighting (12 h/day) and temperature (25±1° C.) and were provided with food and water ab libitum. All the experimental protocols concerning animals were in line with the Guidelines of Sapienza University for the care and use of laboratory animals and were approved by the Ethical Committee of the aforesaid institution. Forty female mice were subjected to an ovariectomy for the purpose of inducing vaginal atrophy and were administered a diet of Altromin C1000 without phytoestrogens (Altromin, Lage, Germany) for the duration of the experiments. After 30 days, the mice were treated locally, introducing daily into the vaginal canal 25 μl of hydrogel loaded with KGF (10 or 30 ng/day) or with E2 (30 ng/day or 1 μg/day). A control group was treated only with hydrogel. After 60 days of treatment, the mice were killed and the vaginas were immediately explanted, fixed in formalin and processed for histological analysis.
The concentrations of E2 and KGF in the serum of treated mice were measured using an ELISA standard kit (R & D Systems, Minneapolis, Minn., USA). The sensitivity of the ELISA assay was ≧10 pg/mL. Standard preparations of E2 or KGF were used as internal controls. The values are presented as mean±standard deviation. […]

ER alpha = test: Western blot of ER alpha phosphorylation (Ser118) in MCF-7 cells; type: cell-based, human; settings: 20 ng/ml, FIG. 2D
Protocol: as §1, §2

Molecule	KGFR protein level (KGFR [1])	KGFR mRNA expression compared to untreated cells (KGFR [2]) [fold increase]	release into the bloodstream (serum levels by ELISA) after local vaginal treatment [3]	phosphorylation of ER alpha (Ser118) (ER alpha)
C[C@]12CC[C@@H]3c4ccc(O)cc4CC[C@H]3[C@@H]1CC[C@@H]2O [E2, 17β-oestradiol]	a rise in the protein KGFR	2.2	reached the bloodstream even after treatment at low doses	–
keratinocyte growth factor (protein, listed as Homo sapiens, human recombinant KGF (Upstate Biotechnology)) MHKWILTWILPTLLYRSCFHIICLVGTISLACNDMTPEQMATNVNCSSPERHTRSYDYMEGGDIRVRRLFCRTQWYLRIDKRGKVKGTQEMKNNYNIMEIRTVAVGIVAIKGVESEFYLAMNKEGKLYAKKECNEDCNFKELILENHYNTYASAKWTHNGGEMFVALNQKGIPVRGKKTKKEQKTAHFLPMAIT	–	–	–	able to induce, equally to E2, phosphorylation of ER alpha
